Measurements from patent US20090130033A1, “Dendrimer-Aminobuadiene-Based Uv Screens” (priority 2004, published 2009).

Assay: Absorption maximum of aminobutadienes in methanol (or ethanol)
Assay type: physicochemical
Details: in methanol (or ethanol when not soluble in methanol)
From the text: The aminobutadiene according to the present invention has the general formula (I) disclosed above. A preferred class of aminobutadienes is that in which R3 represents —COOH, —COOR5, —COR5 or SO2R5 and R4 represents a carboxyl group, —COOR6, —COR6 or —SO2R6, wherein R1, R2, R5 and R6 have the meanings indicated above. Examples of aminobutadienes according to the general formula (I) are for example disclosed in U.S. Pat. No. 4,195,999. Table 1 lists a number of aminobutadienes according to the present invention which can be coupled to an amine rich polymer, including their absorption maxima in methanol (or ethanol when not soluble in methanol).

CCCCC(CC)COC(=O)/C(=C\C=C\N1CCCCC1)C(C)=O (stereo not shown) [2.3]
Absorption maximum: 395 nm
